Source: patent US20140303127A1, “NEW CYCLOHEXYLAMINE DERIVATIVES HAVING BETA 2 ADRENERGIC AGONIST AND M3 MUSCARINIC ANTAGONIST ACTIVITIES” (ALMIRALL, S.A., priority 2011, published 2014)
pIC50: −log10 of the molar value. Where two headings read alike, the source gives them in different places. One block for each compound: values may come before it.

Legend:
[1] = target: T1, human muscarinic M3 receptor (Homo sapiens, UniProt P20309); experiment: Human muscarinic M3 receptor binding assay ([3H]-NMS, CHO-K1 membranes)
T1 construct: purchased Perkin Elmer; host or cells: CHO-K1 cells (membranes)
T1 sequence (P20309 whole entry): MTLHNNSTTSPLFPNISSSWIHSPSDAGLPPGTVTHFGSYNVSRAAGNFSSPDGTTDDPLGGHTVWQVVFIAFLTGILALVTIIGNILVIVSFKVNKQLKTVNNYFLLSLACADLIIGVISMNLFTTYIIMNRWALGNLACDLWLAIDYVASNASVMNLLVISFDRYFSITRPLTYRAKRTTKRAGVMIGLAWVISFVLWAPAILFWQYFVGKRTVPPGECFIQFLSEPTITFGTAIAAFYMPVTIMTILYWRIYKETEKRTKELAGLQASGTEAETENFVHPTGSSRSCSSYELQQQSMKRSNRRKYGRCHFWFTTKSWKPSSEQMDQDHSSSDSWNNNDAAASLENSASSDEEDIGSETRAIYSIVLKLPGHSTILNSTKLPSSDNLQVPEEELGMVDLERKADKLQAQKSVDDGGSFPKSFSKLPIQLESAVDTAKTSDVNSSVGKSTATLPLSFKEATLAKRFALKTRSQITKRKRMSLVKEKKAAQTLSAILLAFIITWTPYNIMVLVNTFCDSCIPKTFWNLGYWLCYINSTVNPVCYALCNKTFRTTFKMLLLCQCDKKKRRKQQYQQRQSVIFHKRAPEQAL
Protocol: Test 2: Human Muscarinic M1, M2, M3, M4 and M5 Receptors Binding Assays
The study of binding to human muscarinic M1, M2, M3, M4 and M5 receptors was performed using commercial membranes (Perkin Elmer) prepared from CHO-K1 cells. Radioligand binding experiments were conducted in 96 polypropylene well plates in a total volume of 200 μl. All reagents were dissolved in assay binding buffer (PBS with calcium and magnesium, SIGMA), except compounds that were dissolved in DMSO 100%. Non-specific binding (NSB) was measured in the presence of 1 μM atropine. [3H]-NMS was used as the radioligand at a concentration of 1 nM for M2, M3 and M5 and 0.3 nM for M1 and M4. [3H]-NMS and antagonists were incubated with membranes that express human muscarinic receptors M1, M2, M3, M4 and M5 at concentrations of 8.1, 10, 4.9, 4.5 and 4.9 μg/well, respectively. After an incubation period of two hours with gentle shaking, 150 μl of the reaction mix were transferred to 96 GF/C filter plates (Millipore), previously treated with wash buffer (Tris 50 mM; NaCl 100 mM; pH:7.4), containing 0.05% PEI (Sigma) during one hour. Bound and free [3H]-NMS were separated by rapid vacuum filtration in a manifold from Millipore and washed four times with ice cold wash buffer. After drying 30 min, 30 μl of OPTIPHASE Supermix were added to each well and radioactivity quantified using a Microbeta microplate scintillation counter.
The affinity of each test compound to the receptors was determined by using ten different concentrations ran in duplicate. IC50s were calculated using Activity Base software from IDBS and the four parameters-log equation.

[2] = target: T2, human adrenergic beta2 receptor (Homo sapiens, UniProt P07550); experiment: Human adrenergic β2 receptor binding assay (3H-CGP12177, Sf9 membranes)
T2 construct: purchased Perkin Elmer; host or cells: Sf9 cells (membranes)
Protocol: Test 1: Human Adrenergic β1 and β2 Receptor Binding Assays
The study of binding to human adrenergic beta1 and beta2 receptors was performed using commercial membranes prepared from Sf9 cells where they are overexpressed (Perkin Elmer). The membrane suspensions (16 μg/well for beta1 and 5 μg/well for beta2) in assay buffer (75 mM Tris/HCl with 12.5 mM MgCl2 and 2 mM EDTA pH=7.4) were incubated with 0.14 or 0.6 nM of 3H-CGP12177 (Amersham) for beta 1 and beta 2 receptors respectively in a final volume of 250 μl, in GFC Multiscreen 96 well plates (Millipore) previously treated with assay buffer containing 0.3% PEI (Sigma). Non specific binding was measured in the presence of 1 μM propanolol. Incubation was maintained for 60 minutes at room temperature and with gentle shaking. The binding reactions were terminated by filtration and washing with 2.5 volumes of Tris/HCl 50 mM pH=7.4. The affinity of each test compound to the receptor was determined by using ten different concentrations ran in duplicate. IC50s were calculated using Activity Base software from IDBS and the four parameters-log equation.

[3] = membranes from CHO-K1 cells expressing human M3, 1 nM [3H]-NMS, read-out: Binding IC50, M3
[4] = membranes from Sf9 cells overexpressing human beta2, 0.6 nM 3H-CGP12177, read-out: Binding IC50, β2

Compound: CN(CCCn1ccc2cc(CNC[C@H](O)c3ccc(O)c4[nH]c(=O)ccc34)ccc21)[C@H]1CC[C@H](OC(=O)C(O)(c2cccs2)c2cccs2)CC1 (relative stereo) [Example 4, trans-4-[{3-[5-({[(2R)-2-hydroxy-2-(8-hydroxy-2-oxo-1,2-dihydroquinolin-5-yl)ethyl]amino}methyl)-1H-indol-1-yl]propyl}(methyl)amino]cyclohexyl hydroxy(di-2-thienyl)acetate dihydrofluoride]
- pIC50 [1, 3]: 9.22
- pIC50 [2, 4]: 6.66

Compound: CN(CCNC(=O)COc1ccc(CNC[C@H](O)c2ccc(O)c3[nH]c(=O)ccc23)cc1)[C@H]1CC[C@H](OC(=O)C(O)(c2cccs2)c2cccs2)CC1 (relative stereo) [Example 8, trans-4-[[2-({[4-({[(2R)-2-hydroxy-2-(8-hydroxy-2-oxo-1,2-dihydroquinolin-5-yl)ethyl]amino}methyl)phenoxy]acetyl}amino)ethyl](methyl)amino]cyclohexyl hydroxy(di-2-thienyl)acetate dihydrofluoride]
- pIC50 [1, 3]: 8.66
- pIC50 [2, 4]: 7.74

Compound: CN(CCCn1c(=O)oc2cc(CNC[C@H](O)c3ccc(O)c4[nH]c(=O)ccc34)ccc21)[C@H]1CC[C@H](OC(=O)C(O)(c2cccs2)c2cccs2)CC1 [Example 1, trans-4-[{3-[6-({[(2R)-2-hydroxy-2-(8-hydroxy-2-oxo-1,2-dihydroquinolin-5-yl)ethyl]amino}methyl)-2-oxo-1,3-benzoxazol-3(2H)-yl]propyl}(methyl)amino]cyclohexyl hydroxy(di-2-thienyl)acetate, dihydrofluoride]
- pIC50 [1, 3]: 9.52
- pIC50 [2, 4]: 6.85

Compound: CN(CCCn1c(=O)[nH]c2cc(CNC[C@H](O)c3ccc(O)c4[nH]c(=O)ccc34)ccc21)[C@H]1CC[C@H](OC(=O)C(O)(c2cccs2)c2cccs2)CC1 [Example 2, trans-4-[{3-[5-({[(2R)-2-hydroxy-2-(8-hydroxy-2-oxo-1,2-dihydroquinolin-5-yl)ethyl]amino}methyl)-2-oxo-2,3-dihydro-1H-benzimidazol-1-yl]propyl}(methyl)amino]cyclohexyl hydroxy(di-2-thienyl)acetate dihydrofluoride]
- pIC50 [1]: 9.40
- pIC50 [2]: 6.92

Compound: CN(CCCc1nc(-c2ccc(CNC[C@H](O)c3ccc(O)c4[nH]c(=O)ccc34)cc2)no1)[C@H]1CC[C@H](OC(=O)C(O)(c2cccs2)c2cccs2)CC1 [Example 5, trans-4-[(3-{3-[4-({[(2R)-2-hydroxy-2-(8-hydroxy-2-oxo-1,2-dihydroquinolin-5-yl)ethyl]amino}methyl)phenyl]-1,2,4-oxadiazol-5-yl}propyl)(methyl)amino]cyclohexyl hydroxy(di-2-thienyl)acetate dihydrofluoride]
- pIC50 [1, 3]: 9.40
- pIC50 [2, 4]: 8.57

Compound: CN(CCN(C)[C@H]1CC[C@H](OC(=O)C(O)(c2cccs2)c2cccs2)CC1)C(=O)COc1ccc(CNC[C@H](O)c2ccc(O)c3[nH]c(=O)ccc23)cc1 [Example 6, trans-4-[{2-[{[4-({[(2R)-2-hydroxy-2-(8-hydroxy-2-oxo-1,2-dihydroquinolin-5-yl)ethyl]amino}methyl)phenoxy]acetyl}(methyl)amino]ethyl}(methyl)amino]cycloh exyl hydroxy(di-2-thienyl)acetate dihydrofluoride]
- pIC50 [1, 3]: 8.85
- pIC50 [2, 4]: 7.47

Compound: COc1cc(-c2noc(CCCN(C)[C@H]3CC[C@H](OC(=O)C(O)(c4cccs4)c4cccs4)CC3)n2)c(Cl)cc1CNC[C@H](O)c1ccc(O)c2[nH]c(=O)ccc12 [Example 9, trans-4-[(3-{3-[2-chloro-4-({[(2R)-2-hydroxy-2-(8-hydroxy-2-oxo-1,2-dihydroquinolin-5-yl)ethyl]amino}methyl)-5-methoxyphenyl]-1,2,4-oxadiazol-5-yl}propyl)(methyl)amino]cyclohexyl hydroxy(di-2-thienyl)acetate dihydrofluoride]
- pIC50 [1]: 9.70
- pIC50 [2]: 8.66

Compound: COc1cc(OCC(=O)N(C)CCN(C)[C@H]2CC[C@H](OC(=O)C(O)(c3cccs3)c3cccs3)CC2)c(Cl)cc1CNC[C@H](O)c1ccc(O)c2[nH]c(=O)ccc12 [Example 10, trans-4-[{2-[{[2-chloro-4-({[(2R)-2-hydroxy-2-(8-hydroxy-2-oxo-1,2-dihydroquinolin-5-yl)ethyl]amino}methyl)-5-methoxyphenoxy]acetyl}(methyl)amino]ethyl}(methyl)amino]cyclohexyl hydroxy(di-2-thienyl)acetate dihydrofluoride]
- pIC50 [1]: 9.40
- pIC50 [2]: 8.24

Compound: CN(CCCn1c(=O)sc2cc(CNC[C@H](O)c3ccc(O)c4[nH]c(=O)ccc34)ccc21)[C@H]1CC[C@H](OC(=O)C(O)(c2cccs2)c2cccs2)CC1 [Example 11, trans-4-[{3-[6-({[(2R)-2-hydroxy-2-(8-hydroxy-2-oxo-1,2-dihydroquinolin-5-yl)ethyl]amino}methyl)-2-oxo-1,3-benzothiazol-3(2H)-yl]propyl}(methyl)amino]cyclohexyl hydroxy(di-2-thienyl)acetate dihydrofluoride]
- pIC50 [1, 3]: 9.30
- pIC50 [2, 4]: 8.38

- pIC50 [1, 3]: 9.00
- pIC50 [2, 4]: 8.82
Compound: CN(CCCn1c(=O)oc2cc(CNC[C@H](O)c3ccc(O)c4[nH]c(=O)ccc34)ccc21)[C@H]1CC[C@H](OC(=O)C2(C)c3ccccc3Oc3ccccc32)CC1 [Example 15, trans-4-[{3-[6-({[(2R)-2-hydroxy-2-(8-hydroxy-2-oxo-1,2-dihydroquinolin-5-yl)ethyl]amino}methyl)-2-oxo-1,3-benzoxazol-3(2H)-yl]propyl}(methyl)amino]cyclohexyl 9-methyl-9H-xanthene-9-carboxylate dihydrofluoride]

Compound: CN(CCCn1nnc2cc(CNC[C@H](O)c3ccc(O)c4[nH]c(=O)ccc34)ccc21)[C@H]1CC[C@H](OC(=O)[C@](O)(c2cccs2)C2CCCC2)CC1 [Example 17, trans-4-[{3-[5-({[(2R)-2-hydroxy-2-(8-hydroxy-2-oxo-1,2-dihydroquinolin-5-yl)ethyl]amino}methyl)-1H-1,2,3-benzotriazol-1-yl]propyl}(methyl)amino]cyclohexyl (2S)-cyclopentyl(hydroxy)-2-thienylacetate dihydrofluoride]
- pIC50 [1, 3]: 9.22
- pIC50 [2, 4]: 7.89

Compound: trans-4-[{3-[5-({[(2R)-2-hydroxy-2-(5-hydroxy-3-oxo-3,4-dihydro-2H-1,4-benzoxazin-8-yl)ethyl]amino}methyl)-1H-1,2,3-benzotriazol-1-yl]propyl}(methyl)amino]cyclohexyl (2S)-cyclopentyl(hydroxy)-2-thienylacetate dihydrofluoride [Example 18]
- pIC50 [1, 3]: 9.40

Compound: trans-4-[{3-[6-(2-{[(2R)-2-hydroxy-2-(8-hydroxy-2-oxo-1,2-dihydroquinolin-5-yl)ethyl]amino}ethyl)-2-oxo-1,3-benzoxazol-3(2H)-yl]propyl}(methyl)amino]cyclohexyl hydroxy(di-2-thienyl)acetate dihydrofluoride [Example 19]
- pIC50 [1, 3]: 9.10
- pIC50 [2, 4]: 7.21

Compound: trans-4-{[2-({2-[4-(2-{[(2R)-2-hydroxy-2-(8-hydroxy-2-oxo-1,2-dihydroquinolin-5-yl)ethyl]amino}propyl)phenoxy]acetyl}amino)ethyl]amino}cyclohexyl hydroxy(di-2-thienyl)acetate dihydrofluoride [Example 20]
- pIC50 [1, 3]: 8.44
- pIC50 [2, 4]: 8.51
